pIC50: −log10 of the molar value.
Tests used:
[1] = tested on: systemic mastocytosis (SM) patients; assay: Phase II open-label study in SM patients; assay type: in vivo, human; settings: 400 mg orally twice daily, first 23 pts, preliminary data
Experimental: A Phase II, open-label study was designed to evaluate the safety and efficacy of Compound (II) administered orally 400 mg twice daily. SM patients meeting specific disease criteria and with a clinical indication for treatment were enrolled. The results are based on preliminary data for the first 23 pts in this study. Results: The median age was 49 (range 33-78) yrs and the median time from diagnosis of SM was 27 (range 1 to 292) months. […] The median exposure to Compound (II) was 144 days. Treatment is ongoing for 18 (78%) pts; 5 (22%) discontinued, 3 (13%) for adverse events and 2 (9%) withdrew consent. Three (13%) responses were reported (2 incomplete remission and 1 minor response), based on serum tryptase, bone marrow mast cell counts and improvement of clinical symptoms.

GIST882 cells = assay: GIST882 cell proliferation assay (ATPLite luminescent ATP detection); assay type: cell-based; settings: Homo sapiens; GIST882 cells (KIT K-642-E), 70 h incubation, mean value; read-out: mean IC50, inhibition of proliferation of GIST882 cells
Experimental: The effects of compounds on viability and proliferation of the cells is determined using the luminescent ATP Detection assay kit ATPLite™ from Perkin Elmer Life Sciences (Cat. No: 6016947) according to the instructions of the suppliers. This assay system is based on the production of light (luminescence) caused by the reaction of ATP with added luciferase and D-luciferin.
GIST882, is a human gastrointestinal stromal tumor (GIST) cell line expressing an activating KIT mutation (exon 13, K-642-E) (Tuveson D A, Willis N A, Jacks T, Griffin J D, Singer S, Fletcher C D, Fletcher J A, Demetri G D, STI571 inactivation of the gastrointestinal stromal tumor c-KIT oncoprotein: biological and clinical implications, Oncogene, 2001 Aug. 16; 20(36):5054-8). The GIST882 cells are cultivated in RPMI 1640 (Invitromex, Cat. No: L0501), supplemented with 15% FCS, and 2 mM glutamine (Gibco). […]
GIST882 cells are seeded into black 96-well tissue culture plates (Packard) at a density of 10000 cells per well in 50 μL complete medium and incubated for one day in order to allow for attachment of the cells. […] Subsequently, 50 μL substrate solution (luciferase and D-luciferin) is added and after 5 min shaking and 10 min dark-adaptation of the plates, light emission was measured with a Packard TopCount. […]

SMILES: Cc1cn(-c2cc(NC(=O)c3ccc(C)c(Nc4nccc(-c5cccnc5)n4)c3)cc(C(F)(F)F)c2)cn1 [Compound (II), 4-methyl-3-[[4-(3-pyridinyl)-2-pyrimidinyl]amino]-N-[5-(4-methyl-1H-imidazol-1-yl)-3-(trifluoromethyl)phenyl]benzamide]
- discontinued for adverse events ([1]; median exposure 144 days): 13%
- safety and tolerability in pts with SM [1]: acceptable safety and tolerability profile
- responses (based on serum tryptase, bone marrow mast cell counts and improvement of clinical symptoms) ([1]; 2 incomplete remission and 1 minor response): 13%
- pIC50 (GIST882 cells): > 6.70

Source: patent publication US8673930B2, “Pyrimidylaminobenzamide derivatives for systemic mastocytosis” (Novartis AG, priority 2005, dated 2014)
